Experiments:
[1] = tested on: Tyrosine-protein kinase ABL1 (Homo sapiens), P00519 [T315I]; test: Inhibition of ABL1 T315I mutant (unknown origin) assessed as remaining activity at 1 uM by Kinome scan method relative to control
[2] = target: Bone morphogenetic protein receptor type-1A (Homo sapiens) (UniProt P36894); test: Inhibition of BMPR1A (unknown origin) assessed as remaining activity at 1 uM by Kinome scan method relative to control
[3] = target: T1, Serine/threonine-protein kinase BRSK1 (Homo sapiens) (UniProt Q8TDC3); test: Inhibition of BRSK1 (unknown origin) assessed as remaining activity at 1 uM by Kinome scan method relative to control
T1 sequence (whole entry): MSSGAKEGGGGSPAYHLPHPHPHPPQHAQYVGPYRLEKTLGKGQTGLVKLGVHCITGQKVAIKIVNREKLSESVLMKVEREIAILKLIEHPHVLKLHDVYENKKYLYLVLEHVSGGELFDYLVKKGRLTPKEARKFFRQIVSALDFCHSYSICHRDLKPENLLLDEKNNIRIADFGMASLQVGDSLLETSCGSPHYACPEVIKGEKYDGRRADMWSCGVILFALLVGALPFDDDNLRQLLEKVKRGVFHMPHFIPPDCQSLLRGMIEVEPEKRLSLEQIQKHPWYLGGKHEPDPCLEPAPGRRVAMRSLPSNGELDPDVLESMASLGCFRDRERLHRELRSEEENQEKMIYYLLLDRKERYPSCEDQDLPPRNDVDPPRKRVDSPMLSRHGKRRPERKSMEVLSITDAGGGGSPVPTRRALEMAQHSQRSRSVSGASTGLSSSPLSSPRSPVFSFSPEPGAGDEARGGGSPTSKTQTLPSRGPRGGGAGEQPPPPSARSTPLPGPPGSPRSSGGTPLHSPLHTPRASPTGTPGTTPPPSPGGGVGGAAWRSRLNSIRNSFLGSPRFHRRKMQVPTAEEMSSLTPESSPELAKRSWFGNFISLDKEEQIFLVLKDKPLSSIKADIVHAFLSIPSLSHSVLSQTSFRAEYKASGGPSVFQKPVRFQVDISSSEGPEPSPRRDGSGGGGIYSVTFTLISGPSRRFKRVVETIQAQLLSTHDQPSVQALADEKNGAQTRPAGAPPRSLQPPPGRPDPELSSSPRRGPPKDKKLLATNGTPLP

[4] = target: Ephrin type-B receptor 6 (Homo sapiens) (UniProt O15197); test: Inhibition of EPHB6 (unknown origin) assessed as remaining activity at 1 uM by Kinome scan method relative to control
[5] = target: Fibroblast growth factor receptor 2 (Homo sapiens) (UniProt P21802); test: Inhibition of FGFR2 (unknown origin) assessed as remaining activity at 1 uM by Kinome scan method relative to control
[6] = target: Cyclin-G-associated kinase (Homo sapiens) (UniProt O14976); test: Inhibition of GAK (unknown origin) assessed as remaining activity at 1 uM by Kinome scan method relative to control
[7] = target: Rhodopsin kinase GRK1 (Homo sapiens) (UniProt Q15835); test: Inhibition of GRK1 (unknown origin) assessed as remaining activity at 1 uM by Kinome scan method relative to control
[8] = target: Tyrosine-protein kinase HCK (Homo sapiens) (UniProt P08631); test: Inhibition of HCK (unknown origin) assessed as remaining activity at 1 uM by Kinome scan method relative to control
[9] = target: Hormonally up-regulated neu tumor-associated kinase (Homo sapiens) (UniProt P57058); test: Inhibition of HUNK (unknown origin) assessed as remaining activity at 1 uM by Kinome scan method relative to control
[10] = target: Serine/threonine-protein kinase ICK (Homo sapiens) (UniProt Q9UPZ9); test: Inhibition of ICK (unknown origin) assessed as remaining activity at 1 uM by Kinome scan method relative to control
[11] = target: T2, Inhibitor of nuclear factor kappa-B kinase subunit alpha (Homo sapiens) (UniProt O15111); test: Inhibition of IKK-alpha (unknown origin) assessed as remaining activity at 1 uM by Kinome scan method relative to control
T2 sequence (whole entry): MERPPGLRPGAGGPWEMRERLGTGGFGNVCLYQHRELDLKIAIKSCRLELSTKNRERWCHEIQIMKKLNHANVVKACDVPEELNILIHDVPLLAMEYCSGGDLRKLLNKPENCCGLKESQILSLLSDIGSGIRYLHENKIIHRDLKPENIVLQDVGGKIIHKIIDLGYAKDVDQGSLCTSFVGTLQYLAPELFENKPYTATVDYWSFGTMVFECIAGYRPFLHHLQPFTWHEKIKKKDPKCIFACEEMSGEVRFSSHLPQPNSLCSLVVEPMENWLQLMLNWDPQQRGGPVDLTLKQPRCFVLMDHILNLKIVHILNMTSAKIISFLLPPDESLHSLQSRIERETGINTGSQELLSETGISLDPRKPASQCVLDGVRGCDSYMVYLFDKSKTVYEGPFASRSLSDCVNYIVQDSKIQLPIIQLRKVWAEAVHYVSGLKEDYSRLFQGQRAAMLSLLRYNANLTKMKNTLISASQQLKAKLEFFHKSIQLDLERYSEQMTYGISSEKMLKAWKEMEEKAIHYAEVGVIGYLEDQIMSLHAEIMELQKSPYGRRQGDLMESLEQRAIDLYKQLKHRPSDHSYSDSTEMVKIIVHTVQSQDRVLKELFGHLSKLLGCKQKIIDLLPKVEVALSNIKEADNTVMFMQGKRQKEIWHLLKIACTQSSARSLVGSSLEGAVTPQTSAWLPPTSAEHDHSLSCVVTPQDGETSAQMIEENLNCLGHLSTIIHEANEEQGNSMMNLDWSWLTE

[12] = target: Mitogen-activated protein kinase 8 (Homo sapiens) (UniProt P45983); test: Inhibition of JNK1 (unknown origin) assessed as remaining activity at 1 uM by Kinome scan method relative to control
[13] = target: Mitogen-activated protein kinase kinase kinase 15 (Homo sapiens) (UniProt Q6ZN16); test: Inhibition of MAP3K15 (unknown origin) assessed as remaining activity at 1 uM by Kinome scan method relative to control
[14] = target: Dual specificity mitogen-activated protein kinase kinase 2 (Homo sapiens) (UniProt P36507); test: Inhibition of MEK2 (unknown origin) assessed as remaining activity at 1 uM by Kinome scan method relative to control
[15] = target: Maternal embryonic leucine zipper kinase (Homo sapiens) (UniProt Q14680); test: Inhibition of MELK (unknown origin) assessed as remaining activity at 1 uM by Kinome scan method relative to control
[16] = target: Myosin light chain kinase, smooth muscle (Homo sapiens) (UniProt Q15746); test: Inhibition of MYLK (unknown origin) assessed as remaining activity at 1 uM by Kinome scan method relative to control
[17] = target: Ribosomal protein S6 kinase alpha-3 (Homo sapiens) (UniProt P51812); test: Inhibition of N-terminal kinase domain RPS6KA3 (unknown origin) assessed as remaining activity at 1 uM by Kinome scan method relative to control
[18] = target: Ribosomal protein S6 kinase alpha-4 (Homo sapiens) (UniProt O75676); test: Inhibition of N-terminal kinase domain RPS6KA4 (unknown origin) assessed as remaining activity at 1 uM by Kinome scan method relative to control

Chain of Ribosomal protein S6 kinase alpha-3 (Homo sapiens) (P51812 whole entry, the tested form may be a part): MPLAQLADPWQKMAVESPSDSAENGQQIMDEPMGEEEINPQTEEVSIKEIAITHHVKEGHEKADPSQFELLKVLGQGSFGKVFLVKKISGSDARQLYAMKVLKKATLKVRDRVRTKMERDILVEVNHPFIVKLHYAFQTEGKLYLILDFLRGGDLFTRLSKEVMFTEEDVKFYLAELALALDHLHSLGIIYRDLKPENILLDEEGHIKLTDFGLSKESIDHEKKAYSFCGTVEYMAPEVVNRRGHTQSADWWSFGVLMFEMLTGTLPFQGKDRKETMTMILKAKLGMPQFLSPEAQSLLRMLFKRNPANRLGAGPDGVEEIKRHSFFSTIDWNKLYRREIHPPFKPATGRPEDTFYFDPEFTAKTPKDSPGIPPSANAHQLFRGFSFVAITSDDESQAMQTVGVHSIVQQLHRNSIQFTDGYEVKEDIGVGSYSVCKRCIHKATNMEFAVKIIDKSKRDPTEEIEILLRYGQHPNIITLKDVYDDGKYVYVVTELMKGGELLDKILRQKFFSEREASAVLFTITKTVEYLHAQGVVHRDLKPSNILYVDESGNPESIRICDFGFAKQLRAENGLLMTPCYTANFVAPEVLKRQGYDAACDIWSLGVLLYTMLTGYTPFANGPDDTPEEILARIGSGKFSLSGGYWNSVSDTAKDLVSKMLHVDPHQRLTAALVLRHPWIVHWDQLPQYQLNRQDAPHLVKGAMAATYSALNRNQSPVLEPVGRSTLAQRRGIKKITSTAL
Chain of Hormonally up-regulated neu tumor-associated kinase (Homo sapiens) (P57058 whole entry): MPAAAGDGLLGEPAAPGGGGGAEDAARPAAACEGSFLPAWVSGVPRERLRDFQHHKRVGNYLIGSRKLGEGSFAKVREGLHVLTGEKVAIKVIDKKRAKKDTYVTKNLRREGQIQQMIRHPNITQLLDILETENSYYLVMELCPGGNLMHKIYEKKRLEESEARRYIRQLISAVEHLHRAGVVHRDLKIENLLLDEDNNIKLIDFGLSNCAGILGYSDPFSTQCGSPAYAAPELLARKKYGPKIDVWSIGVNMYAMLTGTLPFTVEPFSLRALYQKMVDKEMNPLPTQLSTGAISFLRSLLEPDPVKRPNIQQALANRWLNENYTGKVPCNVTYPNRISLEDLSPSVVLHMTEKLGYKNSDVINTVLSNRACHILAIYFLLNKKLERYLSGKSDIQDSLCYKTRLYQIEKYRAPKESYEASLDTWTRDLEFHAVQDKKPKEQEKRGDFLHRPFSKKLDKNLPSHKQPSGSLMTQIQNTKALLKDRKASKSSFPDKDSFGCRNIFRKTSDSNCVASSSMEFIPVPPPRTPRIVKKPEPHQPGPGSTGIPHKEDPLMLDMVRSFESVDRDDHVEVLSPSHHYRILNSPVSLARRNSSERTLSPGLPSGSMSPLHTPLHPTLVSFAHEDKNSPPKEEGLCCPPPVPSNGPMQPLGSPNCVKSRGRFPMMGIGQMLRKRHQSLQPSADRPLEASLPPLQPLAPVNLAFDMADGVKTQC
Chain of Cyclin-G-associated kinase (Homo sapiens) (O14976 whole entry): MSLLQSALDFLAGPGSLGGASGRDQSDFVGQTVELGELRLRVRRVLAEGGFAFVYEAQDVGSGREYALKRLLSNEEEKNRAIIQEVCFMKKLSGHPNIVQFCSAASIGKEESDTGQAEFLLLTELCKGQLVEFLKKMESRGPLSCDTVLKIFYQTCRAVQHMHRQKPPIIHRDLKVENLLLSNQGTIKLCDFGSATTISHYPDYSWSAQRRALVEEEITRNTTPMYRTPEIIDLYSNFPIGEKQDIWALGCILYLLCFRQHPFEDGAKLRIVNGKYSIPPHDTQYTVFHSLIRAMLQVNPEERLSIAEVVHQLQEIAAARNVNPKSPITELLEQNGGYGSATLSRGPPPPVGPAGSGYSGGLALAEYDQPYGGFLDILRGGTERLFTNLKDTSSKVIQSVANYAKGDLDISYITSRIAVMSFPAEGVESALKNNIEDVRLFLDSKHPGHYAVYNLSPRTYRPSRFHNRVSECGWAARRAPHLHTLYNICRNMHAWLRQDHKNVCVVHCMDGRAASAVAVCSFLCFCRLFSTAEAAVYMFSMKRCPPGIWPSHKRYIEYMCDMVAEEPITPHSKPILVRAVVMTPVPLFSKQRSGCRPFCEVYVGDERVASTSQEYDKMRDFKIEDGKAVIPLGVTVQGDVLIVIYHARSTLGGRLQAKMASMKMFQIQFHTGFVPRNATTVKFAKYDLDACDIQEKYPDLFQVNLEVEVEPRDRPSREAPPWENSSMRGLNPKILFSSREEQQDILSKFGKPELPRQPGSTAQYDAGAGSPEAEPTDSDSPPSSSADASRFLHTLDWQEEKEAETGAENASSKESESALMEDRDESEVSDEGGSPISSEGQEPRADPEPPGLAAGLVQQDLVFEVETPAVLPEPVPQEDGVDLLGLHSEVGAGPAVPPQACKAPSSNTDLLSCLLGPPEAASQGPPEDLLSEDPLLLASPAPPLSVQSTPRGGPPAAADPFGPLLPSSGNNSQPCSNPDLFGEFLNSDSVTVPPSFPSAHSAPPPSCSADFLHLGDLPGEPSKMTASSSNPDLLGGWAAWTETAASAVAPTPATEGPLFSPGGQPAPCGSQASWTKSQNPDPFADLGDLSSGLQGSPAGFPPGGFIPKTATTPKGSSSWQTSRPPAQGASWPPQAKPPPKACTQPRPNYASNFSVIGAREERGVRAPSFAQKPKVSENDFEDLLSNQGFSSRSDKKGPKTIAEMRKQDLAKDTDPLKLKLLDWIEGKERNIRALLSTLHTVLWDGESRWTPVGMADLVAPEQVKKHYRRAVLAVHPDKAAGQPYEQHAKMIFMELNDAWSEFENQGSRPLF
Chain of Bone morphogenetic protein receptor type-1A (Homo sapiens) (P36894 whole entry): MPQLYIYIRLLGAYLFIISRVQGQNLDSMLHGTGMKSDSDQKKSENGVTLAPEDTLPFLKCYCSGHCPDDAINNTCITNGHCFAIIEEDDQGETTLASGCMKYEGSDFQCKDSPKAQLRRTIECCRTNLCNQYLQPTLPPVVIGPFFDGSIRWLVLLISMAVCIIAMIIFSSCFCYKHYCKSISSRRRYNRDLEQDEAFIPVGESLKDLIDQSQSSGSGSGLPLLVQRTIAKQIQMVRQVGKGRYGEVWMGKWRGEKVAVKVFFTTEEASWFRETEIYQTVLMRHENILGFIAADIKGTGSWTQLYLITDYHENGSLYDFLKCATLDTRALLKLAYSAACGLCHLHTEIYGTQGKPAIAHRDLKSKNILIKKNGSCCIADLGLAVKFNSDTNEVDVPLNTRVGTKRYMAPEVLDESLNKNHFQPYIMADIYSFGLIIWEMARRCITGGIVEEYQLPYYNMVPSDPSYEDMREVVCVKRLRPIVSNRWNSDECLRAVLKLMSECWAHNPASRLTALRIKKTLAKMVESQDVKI
Chain of Maternal embryonic leucine zipper kinase (Homo sapiens) (Q14680 whole entry, looked up): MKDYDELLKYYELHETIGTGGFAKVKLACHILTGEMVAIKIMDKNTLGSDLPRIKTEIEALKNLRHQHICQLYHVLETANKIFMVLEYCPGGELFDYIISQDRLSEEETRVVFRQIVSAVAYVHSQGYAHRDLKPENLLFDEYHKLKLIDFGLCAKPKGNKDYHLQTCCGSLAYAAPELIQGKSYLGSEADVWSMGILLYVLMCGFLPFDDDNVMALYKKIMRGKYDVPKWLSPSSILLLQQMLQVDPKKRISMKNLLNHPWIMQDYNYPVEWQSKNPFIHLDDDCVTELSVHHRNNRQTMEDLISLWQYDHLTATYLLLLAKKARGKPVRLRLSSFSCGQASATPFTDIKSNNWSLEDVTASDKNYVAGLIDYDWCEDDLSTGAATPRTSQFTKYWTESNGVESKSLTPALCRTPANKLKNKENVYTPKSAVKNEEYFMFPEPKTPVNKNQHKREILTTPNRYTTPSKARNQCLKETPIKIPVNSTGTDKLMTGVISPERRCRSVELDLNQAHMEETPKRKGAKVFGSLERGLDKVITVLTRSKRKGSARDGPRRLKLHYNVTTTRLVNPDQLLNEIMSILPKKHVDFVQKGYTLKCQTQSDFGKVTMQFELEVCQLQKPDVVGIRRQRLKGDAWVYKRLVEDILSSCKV
Chain of Fibroblast growth factor receptor 2 (Homo sapiens) (P21802 22-821 limits assumed): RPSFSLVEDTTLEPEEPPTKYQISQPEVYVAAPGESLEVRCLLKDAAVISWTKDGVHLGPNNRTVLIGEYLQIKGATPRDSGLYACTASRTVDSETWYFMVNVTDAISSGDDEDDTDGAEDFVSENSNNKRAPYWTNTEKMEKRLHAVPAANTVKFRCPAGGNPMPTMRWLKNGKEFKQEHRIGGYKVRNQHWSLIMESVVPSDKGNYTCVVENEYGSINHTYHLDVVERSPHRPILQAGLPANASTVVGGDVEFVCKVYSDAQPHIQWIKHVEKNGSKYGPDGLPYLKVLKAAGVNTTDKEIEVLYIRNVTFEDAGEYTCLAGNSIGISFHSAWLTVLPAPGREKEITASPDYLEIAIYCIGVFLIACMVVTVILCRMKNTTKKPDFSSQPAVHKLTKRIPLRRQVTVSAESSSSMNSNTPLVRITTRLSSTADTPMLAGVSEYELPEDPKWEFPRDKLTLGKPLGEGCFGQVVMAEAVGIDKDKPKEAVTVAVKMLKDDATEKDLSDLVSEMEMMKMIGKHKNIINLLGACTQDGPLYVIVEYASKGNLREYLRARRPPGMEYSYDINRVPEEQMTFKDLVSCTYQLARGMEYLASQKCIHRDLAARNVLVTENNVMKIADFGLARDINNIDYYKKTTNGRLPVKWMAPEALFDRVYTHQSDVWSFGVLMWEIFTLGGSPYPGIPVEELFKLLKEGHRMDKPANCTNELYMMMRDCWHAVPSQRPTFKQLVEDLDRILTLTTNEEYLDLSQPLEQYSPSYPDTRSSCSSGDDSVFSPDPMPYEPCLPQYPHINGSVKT

Compound | Activity [1] [%] | Activity [2] [%] | Activity [3] [%] | Activity [4] [%] | Activity [5] [%] | Activity [6] [%] | Activity [7] [%] | Activity [8] [%] | Activity [9] [%] | Activity [10] [%] | Activity [11] [%] | Activity [12] [%] | Activity [13] [%] | Activity [14] [%] | Activity [15] [%] | Activity [16] [%] | Activity [17] [%] | Activity [18] [%]
Nc1ccccc1Nc1ccc2c(c1)CCc1ccccc1C2=O | 83 | 98 | 98 | 99 | 91 | 93 | 84 | 93 | 91 | 83 | 98 | 97 | 94 | 88 | 86 | 72 | 97 | 94
O=C1c2ccc(Nc3ccc(F)cc3F)cc2CCc2ccc(OC[C@H](O)CO)cc21 [Skepinone-L] | 94 | 100 | 100 | 91 | 98 | 53 | 76 | 97 | 96 | 99 | 100 | 75 | 80 | 90 | 94 | 97 | 93 | 82

— ChEMBL document CHEMBL5696441 (Nat Chem Biol, 2011)
